Data: patent publication US20210227854A1, “USE OF D-RIBOSE TO ENHANCE ADAPTATION TO PHYSICAL STRESS” (Bioenergy Life Science, Inc., priority 2014, published 2021)

What was measured:
[1] = Two-minute power test (time trial) on cycle ergometer after sixty-minute high-intensity exercise session, double-blind crossover study; assay type: in vivo, human; settings: for Absolute mean power output change / Relative mean power output change: Table 4, mean (±SD); for Mean Power (W/kg BW): difference between day 1 and day 3, 10 g/day, mean ± SD
Protocol: A high-intensity exercise protocol was designed as a double-blind, crossover study to assess the influence of D-Ribose adaptation to physical stress. Specifically, D-Ribose and a control (Dextrose) were administered on separate subjects at a dosage of ten grams per day (10 g/day). A variety of physiological parameters were measured in the subjects administered D-Ribose (DR) supplementation (i.e., the DR subjects) versus the subjects administered Dextrose (DEX) supplementation (i.e., the DEX subjects).
The subjects consisted of twenty-six (26) healthy individual (10 females, 16 males). Each subject was randomly categorized as a DR subject or a DEX subject for the administration of supplementation. Furthermore, each subject was required to maintain his or her normal diet during the study, as well as performing his or her normal daily activities without performing any additional separate exercise sessions not part of the study protocol.
To test D-ribose for adaptation, the twenty-six (26) adult subjects were further divided into two subgroups based on their fitness level (i.e., peak oxygen uptake (VO2 max) results. The first subgroup comprised subjects with higher VO2 max results (i.e., the “Fit Subgroup”) and the second subgroup comprised subjects with lower VO2 max results (i.e., the “Unfit Subgroup”). The Unfit Subgroup consisted of six (6) females and seven (7) males. The average age of the Unfit Subgroup was 27.7±3.4 years and the average peak VO2 of the Unfit Subgroup was 39.9±4.1 mL/kg/min. The Fit Subgroup consisted of four (4) females and nine (9) males. The average age of the Fit Subgroup was 27.6±3.5 year and the average peak VO2 of the Fit Subgroup was 52.2±4.3 mL/kg/min.
On the load days (i.e., the two (2) days prior to the exercise sessions), DR subjects consumed five grams (5 g) of DR mixed with either their food or in a self-selected beverage with lunch and an additional five grams (5 g) with dinner (i.e., between three to eight hours apart), while DEX subjects consumed five grams (5 g) of DEX mixed with either their food or in a self-selected beverage with lunch and an additional five grams (5 g) with dinner (i.e., between three to eight hours apart).
On the exercise session days (i.e., three (3) days following the load days), DR subjects ingested a standardized pre-exercise snack containing five grams (5 g) of DR at two (2) hours before the exercise session and five grams (5 g) of DR following the exercise session but before leaving the laboratory (i.e., within one hour following the exercise session), while DEX subjects ingested a standardized pre-exercise snack containing five grams (5 g) of DEX at two (2) hours before the exercise session and five grams (5 g) of DEX following the exercise session but before leaving the laboratory (i.e., within one hour following the exercise session). For both DR subjects and DEX subjects, the standardized snacks were self-selected but were based on the subjects' normal dietary habits. The snacks were consistent from day to day and consisted of one hundred seventy grams (170 g) of yogurt and two granola bars, along with the designated supplement. Subjects were asked to record their diets so that there would be consistency throughout the testing period. Following an exercise session, each subject ingested the final daily dose of five grams (5 g) before leaving the laboratory. Subjects also ingested two hundred milliliters (200 ml) of water at twenty (20) and forty (40) minutes of exercise to minimize the effects of dehydration, which can occur during periods of high-intensity exercise.
Each subject was randomly assigned to be a DR subject (for administration of DR supplementation) or a DEX subject (for administration of DEX supplementation). Apart from the supplementation provided to and consumed by the subject, the treatment protocols were identical. The specific treatment protocol (i.e., administration of supplementation and exercise sessions) is detailed in Table 1 below: […]

[2] = Serum creatine kinase (CK) around three days of high-intensity exercise; assay type: in vivo, human; settings: for CK (u): Day 1 to Day 3, 10 g/day, mean ± SD; for Creatine kinase levels, average increase: text b38, p=0.03
Protocol: A high-intensity exercise protocol was designed as a double-blind, crossover study to assess the influence of D-Ribose adaptation to physical stress. Specifically, D-Ribose and a control (Dextrose) were administered on separate subjects at a dosage of ten grams per day (10 g/day). A variety of physiological parameters were measured in the subjects administered D-Ribose (DR) supplementation (i.e., the DR subjects) versus the subjects administered Dextrose (DEX) supplementation (i.e., the DEX subjects). To test D-ribose for adaptation, the twenty-six (26) adult subjects were further divided into two subgroups based on their fitness level (i.e., peak oxygen uptake (VO2 max) results. The first subgroup comprised subjects with higher VO2 max results (i.e., the “Fit Subgroup”) and the second subgroup comprised subjects with lower VO2 max results (i.e., the “Unfit Subgroup”). The Unfit Subgroup consisted of six (6) females and seven (7) males. The average age of the Unfit Subgroup was 27.7±3.4 years and the average peak VO2 of the Unfit Subgroup was 39.9±4.1 mL/kg/min. The Fit Subgroup consisted of four (4) females and nine (9) males. The average age of the Fit Subgroup was 27.6±3.5 year and the average peak VO2 of the Fit Subgroup was 52.2±4.3 mL/kg/min. The protocol of the double-blind crossover study involved an initial baseline assessment, followed by two separate day assessments after consuming either a DR or DEX supplement. Each exercise session entailed measurements of creatine kinase (CK), blood urea nitrogen (BUN), glucose, heart rate (HR), rate of perceived exertion (RPE), and power output (PO) measurements. Physiologic parameters were measured and hydration was provided to the subjects during the exercise session. The same protocol for testing and hydration protocol was followed for both DR subjects and DEX subjects. Blood samples were drawn from each subject via a venipuncture technique at the following time periods: • Ten (10) minutes before commencement of exercise; • Twenty (20) minutes after the commencement of and during exercise; • Forty (40) minutes after the commencement of and during exercise; • Sixty (60) minutes after the commencement of and during exercise; and • Twenty-four (24) hours after the conclusion of exercise (twenty-five (25) hours after the commencement of exercise). Blood glucose was measured at all of the above time points except at twenty-four (24) hours post-exercise. Creatine kinase and BUN levels were measured at the pre-exercise (−10 min.) point during the three (3) days of exercise and twenty-four (24) hours post-exercise following the third (last) exercise session. Heart rate was recorded using a Polar HR monitor. Blood glucose levels were measured using a Bayer glucose monitor. Blood lactate levels were measured by an AccuSport Lactate Analyzer. Creatine kinase and BUN were measured utilizing an Abaxis Piccolo analyzer. Power data from the time trial performance test was assessed with the Sports Medicine Industries (SMI) software package.

Row | Compound | Average change in absolute peak power from Day 1 to Day 3 ([1]; Fit Subgroup) [W] | Average change in relative peak power from Day 1 to Day 3 ([1]; Fit Subgroup) | Absolute mean power output change ([1]; Fit Subgroup) | Relative mean power output change ([1]; Fit Subgroup) | Mean Power (W/kg BW) ([1]; Fit Subgroup) | Average change in absolute peak power from Day 1 to Day 3 ([1]; Unfit Subgroup) [W] | Average change in relative peak power from Day 1 to Day 3 ([1]; Unfit Subgroup) | Absolute mean power output change ([1]; Unfit Subgroup) | Relative mean power output change ([1]; Unfit Subgroup) | Mean Power (W/kg BW) ([1]; Unfit Subgroup) | CK (u) ([2]; Fit Subgroup) | CK (u) ([2]; Unfit Subgroup) | Creatine kinase levels, average increase ([2]; Unfit Subgroup) [U] | Relative and absolute mean power outputs, DR versus DEX treatments ([1]; Fit Subgroup) | Difference between DR and DEX in the change of absolute mean power ([1]; Unfit Subgroup, p=0.01) [%] | Improvement in relative mean power over DEX ([1]; Unfit Subgroup, p=0.04) [%] | Change in CK levels, DR versus DEX ([2]; Fit Subgroup)
1 | O=C[C@H](O)[C@@H](O)[C@H](O)[C@H](O)CO [DEX, Dextrose, reference compound] | 3.31±25.8 | −0.02+0.37 W/kg BW | 8.2 (27.7) W | 0.07 (0.33) W/kg BW | 0.07 ± 0.33 | −10.8±33.0 | −0.09+0.51 W/kg BW | −8.9 (22.4) W | −0.09 (0.29) W/kg BW | −0.09 ± 0.31 | 12.1 ± 270 | 124.5 ± 126.5 | 121.4±110.2 |  |  |  | 
2 | O=C[C@H](O)[C@H](O)[C@H](O)CO [DR, D-Ribose] | 6.2±28.6 | 0.15±0.41 W/kg BW | 2.3 (17.1) W | 0.08 (0.39) W/kg BW | 0.08 ± 0.31 | 26.8±40.8 | 0.33+0.52 W/kg BW | 13.2 (24.2) W | 0.17 (0.32) W/kg BW | 0.20 ± 0.32 | 40.0 ± 348.1 | 10.3 ± 79.3 | 37.1±85.2 | not different | 245 | 288 | No differences
